Experimental data as given in US20250296914A1, “ANTIVIRAL COMPOUNDS AND COMPOSITIONS THEREFROM” (CONSEJO SUPERIOR DE INVESTIGACIONES CIENTÍFICAS, priority 2022, published 2025).
Read-outs that look alike come from different tables or passages of the source.

Test system: SARS-CoV-2 stock strain NL/2020
Assay: Protective effect against virus-induced cytopathic effect (crystal violet staining of Vero-E6 monolayer)
Format: cell-based
Settings: Vero-E6, SARS-CoV-2 MOI 0.001, 72 h; for minimal effective concentration / PC MIN (lowest protective concentration): 50 to 0.78 μM tested; for minimal effective concentration: read-out: PC MIN (lowest protective concentration); for EC50: lowest fully protecting concentration averaged with next lower dilution, read-out: ESTIMATED EC50
[1] = Severe acute respiratory syndrome coronavirus 2, Vero C1008, 72 h

SMILES	minimal effective concentration [1]	EC50 [1]	PC MIN (lowest protective concentration)	EC50
CCc1cccc(-c2ccc(NC(C#N)[C@H](Cc3c[nH]c4ccccc34)NC(=O)OC(C)(C)C)c(C(=O)OC)c2)c1 (stereo partly drawn) [(Iaa), methyl 4-(((2S)-2-((tert-butoxycarbonyl)amino)-1-cyano-3-(1H-indol-3-yl)propyl)amino)-3′-ethyl-[1,1′-biphenyl]-3-carboxylate]	3.12 µM	2340 nM	–	–
COC(=O)c1cc(-c2cccc(N3CCCC3)c2)ccc1NC(C#N)[C@H](Cc1c[nH]c2ccccc12)NC(=O)OC(C)(C)C (stereo partly drawn) [(Iab), methyl 4-(((2S)-2-((tert-butoxycarbonyl)amino)-1-cyano-3-(1H-indol-3-yl)propyl)amino)-3′-(pyrrolidin-1-yl)-[1,1′-biphenyl]-3-carboxylate]	3.12 µM	2340 nM	–	–
COC(=O)c1cc(-c2cccc(N(C)C)c2)ccc1NC(C#N)[C@H](Cc1c[nH]c2ccccc12)NC(=O)OC(C)(C)C (stereo partly drawn) [(Iac), methyl 4-(((2S)-2-((tert-butoxycarbonyl)amino)-1-cyano-3-(1H-indol-3-yl)propyl)amino)-3′-(dimethylamino)-[1,1′-biphenyl]-3-carboxylate]	3.12 µM	2340 nM	–	–
COC(=O)c1cc(-c2cccc(OC(F)(F)F)c2)ccc1NC(C#N)[C@H](Cc1c[nH]c2ccccc12)NC(=O)OC(C)(C)C (stereo partly drawn) [(Iad), methyl 4-(((2S)-2-((tert-butoxycarbonyl)amino)-1-cyano-3-(1H-indol-3-yl)propyl)amino)-3′-(trifluoromethoxy)-[1,1′-biphenyl]-3-carboxylate]	3.12 µM	2340 nM	–	–
COC(=O)c1cc(-c2ccc(N3CCN(C(C)C)CC3)nc2)ccc1NC(C#N)[C@H](Cc1c[nH]c2ccccc12)NC(=O)OC(C)(C)C (stereo partly drawn) [(Iae), methyl 2-(((2S)-2-((tert-butoxycarbonyl)amino)-1-cyano-3-(1H-indol-3-yl)propyl)amino)-5-(6-(4-isopropylpiperazin-1-yl)pyridin-3-yl)benzoate]	3.12 µM	2340 nM	–	–
CCOc1ncc(-c2ccc(NC(C#N)[C@H](Cc3c[nH]c4ccccc34)NC(=O)OC(C)(C)C)c(C(=O)OC)c2)cn1 (stereo partly drawn) [(Iaf), methyl 2-(((2S)-2-((tert-butoxycarbonyl)amino)-1-cyano-3-(1H-indol-3-yl)propyl)amino)-5-(2-ethoxypyrimidin-5-yl)benzoate]	3.12 µM	2340 nM	–	–
CCCCc1ccc(-c2ccc(NC(C#N)[C@H](Cc3c[nH]c4ccccc34)NC(=O)OC(C)(C)C)c(C(=O)OC)c2)cc1 (stereo partly drawn) [(Iag), methyl 4-(((2S)-2-((tert-butoxycarbonyl)amino)-1-cyano-3-(1H-indol-3-yl)propyl)amino)-4′-butyl-[1,1′-biphenyl]-3-carboxylate]	–	–	6.25 µM	4680 nM
COC(=O)c1cc(-c2cccc(Cc3ccccc3)c2)ccc1NC(C#N)[C@H](Cc1c[nH]c2ccccc12)NC(=O)OC(C)(C)C (stereo partly drawn) [(Iah), methyl 3′-benzyl-4-(((2S)-2-((tert-butoxycarbonyl)amino)-1-cyano-3-(1H-indol-3-yl)propyl)-amino)-[1,1′-biphenyl]-3-carboxylate]	6.25 µM	4680 nM	–	–
CC(C)(C)OC(=O)N[C@@H](Cc1c[nH]c2ccccc12)C(C#N)Nc1ccccc1C(=O)NCc1ccccc1 (stereo partly drawn) [(Iai), 2-(((2S)-2-(tert-butoxycarbonylamino)-1-cyano-3-(1H-indol-3-yl)propyl)amino)-N-benzyl-benzamide]	6.25 µM	4690 nM	–	–
CC(C)(C)OC(=O)N[C@@H](Cc1c[nH]c2ccccc12)C(C#N)Nc1ccccc1Br (stereo partly drawn) [(Iaj), (3S)-2-((2-bromophenyl)amino)-4-(1H-indol-3-yl)-3-(tert-butoxycarbonylamino) butanenitrile]	6.25 µM	4690 nM	–	–
COC(=O)c1ccccc1NC(C#N)[C@@H](Cc1c[nH]c2ccccc12)NC(=O)OC(C)(C)C (stereo partly drawn) [(Iak), methyl 2-(((2R)-2-((tert-butoxycarbonyl)amino)-1-cyano-3-(1H-indol-3-yl)propyl)amino)-benzoate]	12.5 µM	9370 nM	–	–
CC(=O)c1ccccc1NC(C#N)[C@H](Cc1c[nH]c2ccccc12)NC(=O)OC(C)(C)C (stereo partly drawn) [(Ial), (3S)-3-(tert-butoxycarbonylamino)-2-((2-acetylphenyl)amino)-4-(1H-indol-3-yl)butanenitrile]	12.5 µM	9370 nM	–	–
COC(=O)c1ccc(NC(C#N)[C@H](Cc2c[nH]c3ccccc23)NC(=O)OC(C)(C)C)cc1 (stereo partly drawn) [(Iam), methyl 4-(((2S)-2-((tert-butoxycarbonyl)amino)-1-cyano-3-(1H-indol-3-yl)propyl)amino)-benzoate]	25 µM	18800 nM	–	–
COC(=O)c1cc(-c2ccc(C(C)(C)C)cc2)ccc1NC(C#N)[C@H](Cc1c[nH]c2ccccc12)NC(=O)OC(C)(C)C (stereo partly drawn) [(Ij), methyl 4-(((2S)-2-((tert-butoxycarbonyl)amino)-1-cyano-3-(1H-indol-3-yl)propyl)amino)-4′-(tert-butyl)-[1,1′-biphenyl]-3-carboxylate]	1.56 µM	1170 nM	–	–
COC(=O)c1c(Br)cccc1NC(C#N)[C@H](Cc1c[nH]c2ccccc12)NC(=O)OC(C)(C)C (stereo partly drawn) [(Ik), methyl 2-bromo-6-(((2S)-2-((tert-butoxycarbonyl)amino)-1-cyano-3-(1H-indol-3-yl)propyl)-amino)benzoate]	1.56 µM	1170 nM	–	–
CCc1ccc(-c2ccc(NC(C#N)[C@H](Cc3c[nH]c4ccccc34)NC(=O)OC(C)(C)C)c(C(=O)OC)c2)cc1 (stereo partly drawn) [(Il), methyl 4-(((2S)-2-((tert-butoxycarbonyl)amino)-1-cyano-3-(1H-indol-3-yl)propyl)amino)-4′-ethyl-[1,1′-biphenyl]-3-carboxylate]	1.56 µM	1170 nM	–	–
COC(=O)c1cc(-c2ccc(C3CC3)cc2)ccc1NC(C#N)[C@H](Cc1c[nH]c2ccccc12)NC(=O)OC(C)(C)C (stereo partly drawn) [(Im1), methyl 4-(((2S)-2-((tert-butoxycarbonyl)amino)-1-cyano-3-(1H-indol-3-yl)propyl)amino)-4′-cyclopropyl-[1,1′-biphenyl]-3-carboxylate]	–	–	1.56 µM	1170 nM
COC(=O)c1cc(-c2ccc(C3CC3)cc2)ccc1NC(C#N)[C@H](Cc1c[nH]c2ccccc12)NC(=O)OC(C)(C)C (stereo partly drawn) [(Im2), methyl 4-(((2S)-2-((tert-butoxycarbonyl)amino)-1-cyano-3-(1H-indol-3-yl)propyl)amino)-4′-cyclopropyl-[1,1′-biphenyl]-3-carboxylate]	–	–	1.56 µM	1170 nM
COC(=O)c1cc(-c2ccc(C3CC3)cc2)ccc1NC(C#N)[C@H](Cc1c[nH]c2ccccc12)NC(=O)OC(C)(C)C (stereo partly drawn) [(Im3), methyl 4-(((2S)-2-((tert-butoxycarbonyl)amino)-1-cyano-3-(1H-indol-3-yl)propyl)amino)-4′-(cyclopropyl)-[1,1′-biphenyl]-3-carboxylate]	–	–	3.12 µM	2340 nM
COC(=O)c1cc(-c2ccc(C3CC3)cc2)ccc1NC(C#N)[C@H](Cc1c[nH]c2ccccc12)NC(=O)OC(C)(C)C (stereo partly drawn) [(Im4), methyl 4-(((2S)-2-((tert-butoxycarbonyl)amino)-1-cyano-3-(1H-indol-3-yl)propyl)amino)-4′-cyclopropyl-[1,1′-biphenyl]-3-carboxylate]	–	–	6.25 µM	4690 nM
COC(=O)c1cc(-c2ccc(N3CCN(C)CC3)cc2)ccc1NC(C#N)[C@H](Cc1c[nH]c2ccccc12)NC(=O)OC(C)(C)C (stereo partly drawn) [(In), methyl 4-(((2S)-2-((tert-butoxycarbonyl)amino)-1-cyano-3-(1H-indol-3-yl)propyl)amino)-4′-(4-methylpiperazin-1-yl)-[1,1′-biphenyl]-3-carboxylate]	1.56 µM	1170 nM	–	–
COC(=O)c1cc(-c2ccc(C)nc2)ccc1NC(C#N)[C@H](Cc1c[nH]c2ccccc12)NC(=O)OC(C)(C)C (stereo partly drawn) [(Ir), methyl 2-(((2S)-2-((tert-butoxycarbonyl)amino)-1-cyano-3-(1H-indol-3-yl)propyl)amino)-5-(6-methylpyridin-3-yl)benzoate]	1.56 µM	1170 nM	–	–
COC(=O)c1cc(-c2ccc(OC)nc2)ccc1NC(C#N)[C@H](Cc1c[nH]c2ccccc12)NC(=O)OC(C)(C)C (stereo partly drawn) [(It), methyl 2-(((2S)-2-((tert-butoxycarbonyl)amino)-1-cyano-3-(1H-indol-3-yl)propyl)amino)-5-(6-methoxypyridin-3-yl)benzoate]	1.56 µM	1170 nM	–	–
COC(=O)c1ccccc1NC(C#N)[C@H](Cc1c[nH]c2ccccc12)NC(=O)OC(C)(C)C (stereo partly drawn) [(Iu), methyl 2-(((2S)-2-((tert-butoxycarbonyl)amino)-1-cyano-3-(1H-indol-3-yl)propyl)amino)benzoate]	3.12 µM	2340 nM	–	–
CC(C)(C)OC(=O)N[C@@H](Cc1c[nH]c2ccccc12)C(C#N)Nc1ccccc1C(=O)OC(C)(C)C (stereo partly drawn) [(Iv), tert-Butyl 2-(((2S)-2-((tert-butoxycarbonyl)amino)-1-cyano-3-(1H-indol-3-yl)propyl)amino)-benzoate]	3.12 µM	2340 nM	–	–
CCCCc1ccc(-c2ccc(NC(C#N)[C@H](Cc3c[nH]c4ccccc34)NC(=O)OC(C)(C)C)c(C(=O)OC)c2)cc1 (stereo partly drawn) [(Iw), methyl 4-(((2S)-2-((tert-butoxycarbonyl)amino)-1-cyano-3-(1H-indol-3-yl)propyl)amino)-4′-butyl-[1,1′-biphenyl]-3-carboxylate]	–	2340 nM	3.12 µM	–
